For this assay, the target named is T1, OTUD3 (Homo sapiens, UniProt Q5T2D3).
T1 construct: OTUD3 OTU (aa 52-209)
T1 sequence (Q5T2D3 52-209): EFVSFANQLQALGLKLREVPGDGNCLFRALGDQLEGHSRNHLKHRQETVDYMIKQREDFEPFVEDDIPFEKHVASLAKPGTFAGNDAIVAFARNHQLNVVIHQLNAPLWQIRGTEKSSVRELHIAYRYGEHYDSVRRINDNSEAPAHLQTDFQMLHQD
Briefly: SPR (Biacore T200, CM5 chip); supported by in vitro K48/K63 di-ubiquitin cleavage inhibition. The class given is binding. Background: Surface plasmon resonance follows binding to a sensor surface in real time, without labels.

Take `O=C(Nc1cccc(-c2nc3ccccc3[nH]2)c1)c1ccc(S(=O)(=O)N2CCc3ccccc3C2)cc1` [compound 16, 4-[dioxo(1,2,3,4-tetrahydroisoquinolin-2-yl)-λ6-sulfanyl]-N-[3-(1H-benzo[d]imidazol-2-yl)phenyl]benzamide]: the affinity, expressed as Kd, was 320 nM. This lies in the sub-micromolar range.

For the origin of these results see paper PMC10300026, “Discovery of an OTUD3 inhibitor for the treatment of non-small cell lung cancer” (Cell Death & Disease, 2023).
